6 compounds from patent US9592300B2, “Methods of using redox-active surfactants to control polymer interactions” (WISCONSIN ALUMNI RESEARCH FOUNDATION, priority 2005, dated 2017) can be followed below.

Like-named read-outs stand apart in the source and are kept apart here.

Series [1] is classed as physicochemical. The conditions noted are these: for cloud point: 0.1 wt % EHEC, 0.1M Li2SO4. As to the method:
Surfactant-ethyl(hydroxylethyl) cellulose (EHEC) interactions were characterized by observing the clouding temperature of solutions of EHEC containing various concentrations of surfactant.
Sample Preparation. Three samples of each solution were prepared to assess reproducibility. […] The EHEC solution was filtered through 0.22 μm GV Millipore filter, placed under vacuum for 30-45 minutes, then bubbled with argon for another 30-45 minutes. This deaeration procedure was performed for all solutions, including solutions of DTAB.
The solutions of polymer, salt, and surfactant were then mixed to form 0.1 wt % EHEC, 0.1M Li2SO4, and the desired concentration of surfactant. These solutions were deaerated three times and bubbled with argon inside airtight containers. These solutions were stored at 25° C. and measured after 3 hours and 1 day.
They were simply filtered, mixed to the desired concentrations, and stored for one day before measurements of cloud points and light scattering were performed.
Cloud Point Measurements. Solution of EHEC and surfactant were immersed in a temperature bath controlled to within 0.1° C. The temperature was increased by 1° C. every 10 minutes and the solutions were visually inspected for clouding. […] The values reported in this study are based on clouding points measured upon increasing the temperature of the solutions.

Series [2] is described as follows: Dynamic light scattering of surfactant micelles (no polymer). The class given is physicochemical. The note with it: 0.1M Li2SO4, no polymer, […]° C., center-of-mass diffusion of spheres (200 mmolal DTAB; 25 mmolal reduced FTMA).
Series [3] in a line: Critical micelle concentration (CMC) in 0.1M Li2SO4. The class given is physicochemical.
Series [4] can be described thus: Phase behaviour of FS with HM-EHEC. The class given is physicochemical. The note with it: 1 wt % HM-EHEC, 10 mM Li2SO4, pH 5. From the text:
The top layer had low viscosity (similar to that of water) and was mildly cloudy; the bottom layer was yellow and highly viscous, almost gel-like. As the concentration of reduced FS increased, the top layer became more cloudy and the bottom layer became less viscous (up to 5 mmolal). As the concentration of reduced FS was decreased (down to 0.1 mmolal), the top layer cleared and the bottom layer became less viscous. […] The solutions made with oxidized FS were faintly blue and cloudy as the concentration increased (from 0.1 to 0.5 mmolal).

The next series concerns pGFP. In words: QLS hydrodynamic size of BFDMA/DNA complexes. The class given is physicochemical. The conditions noted are these: 10 μM BFDMA, 2.4 μg/ml DNA, Opti-MEM, 25° C. As to the method:
(§1) 1) A solution of 100 μM reduced BFDMA was prepared by dissolving BFDMA (solid) in water.
(§2) 2) A solution of 100 μM oxidized BFDMA was prepared as follows: First, a […] reduced BFDMA solution was prepared by dissolving BFDMA (solid) in 1 mM Li2SO4 aqueous solution, and then the solution was oxidized electrochemically. The resultant oxidized BFDMA solution was diluted with water to give a solution of 100 μM oxidized BFDMA.
1) 150 μl of 100 μM reduced/oxidized BFDMA solution was diluted with 150 μl of 24 μg/ml pGFP aqueous solution, and the solution was allowed to stand for 20 min at room temperature. 1.2 ml of Opti-MEM was added to the solution to yield a final BFDMA concentration of 10 μM and a final DNA concentration of 2.4 μg/ml. QLS measurements were made at 25° C. immediately after the samples were prepared.

The subject of the next series is pEGFP-N1. The conditions noted are these: serum-free cell culture medium.
For series [5], the system named is COS-7 cells. The conditions noted are these: for concentrations at which maximum gene expression is observed: four hours exposure, medium with 10% fetal bovine serum.
Series [6] deals with COS-7 cells. The procedure: Preparation of lipoplexes for Transfection Assays.
Cells were then incubated for 48 hours and cell morphology and relative levels of EGFP expression were characterized using phase contrast and fluorescence microscopy.
For these experiments, cells were incubated with lipoplexes for four hours in serum-free medium, followed by incubation in fresh serum-containing medium (see Materials and Methods Section for complete description of transfection procedures).

Series [7] has as its system COS-7 cells. Kind of series: Live/dead cytotoxicity assay of lipoplexes.
A short description of series [8]: QLS hydrodynamic size of BFDMA solutions without DNA. The class given is physicochemical. The conditions noted are these: 10 μM BFDMA, Opti-MEM, 25° C. The procedure:
as §1, §2
150 μl of 100 μM reduced/oxidized BFDMA solution was diluted with 150 μl of water, followed by the addition of 1.2 ml of Opti-MEM. The final BFDMA concentration was 10 μM. QLS measurements were made at 25° C. immediately after the samples were prepared.

[9] abbreviates: [BFDMA] 6 μM, listed as Ox. BFDMA.
[10] abbreviates: [BFDMA] 8 μM, listed as Ox. BFDMA.
The mark [11] stands for this setting: [BFDMA] 10 μM, listed as Ox. BFDMA.
Setting [12] is: [BFDMA] 20 μM, listed as Ox. BFDMA.
Setting [13] is: [BFDMA] 60 μM, listed as Ox. BFDMA.
[14] abbreviates: [BFDMA] 6 μM, listed as Red. BFDMA.
The mark [15] stands for this setting: [BFDMA] 8 μM, listed as Red. BFDMA.
Where [16] appears, read: [BFDMA] 10 μM, listed as Red. BFDMA.
The mark [17] stands for this setting: [BFDMA] 20 μM, listed as Red. BFDMA.
[18] abbreviates: [BFDMA] 60 μM, listed as Red. BFDMA.
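Throughout, for Intensity-Avg Diameter: dynamic light scattering of lipoplexes formed from BFDMA and pEGFP-N1 plasmid (2.4 µg/ml), scattering angles 30° to 110°, autocorrelation functions analysed with CONTIN.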
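Throughout, for Number-Avg Diameter: dynamic light scattering of lipoplexes formed from BFDMA and pEGFP-N1 plasmid (2.4 µg/ml), scattering angles 30° to 110°, autocorrelation functions analysed with CONTIN.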

For the compound `CCCCCCCCCCCC[N+](C)(C)C.[Br-]` [DTAB, dodecyltrimethyl ammonium bromide], in series [1] (1 mM DTAB), the “clouding temperature compared to solutions free of DTAB” value is on record as “not measurably lowered”. In series [1] (5 mmolal DTAB (from 32° C. to 26° C.)), the “lowering of clouding temperature of EHEC solutions” value was 6 °C. Moreover, the cloud point in series [1] (5 mmolal DTAB) was 26-27 °C; in [1] (DTAB concentrations near its CMC (10 mM)) it was 14±0.3 °C. Also, in [2], the “hydrodynamic diameter of micelles” value turned out to be 4 nm. The CMC in series [3] came out at 10 mM.
As for “11-ferrocenylundecylsulfonate [reduced FS]”, the liquid-liquid phase separation entry in series [4] is listed as “caused a liquid-liquid phase separation”.
Consider `C[N+](C)(CCCCCCCCCCC[c-]1cccc1)CCCCCCCCCCC[c-]1cccc1.[Br-].[Fe+2].[Fe+2].c1cc[cH-]c1.c1cc[cH-]c1` [oxidized BFDMA, bis(11-ferrocenylundecyl)dimethylammonium bromide], for which the “hydrodynamic size of aggregates w/ DNA” value in the series on pGFP (time 0 min, listed as ox) came to 209.6 nm; in the series on pGFP (time 120 min, listed as ox) it was 221.4 nm; in the series with pGFP (time 240 min, listed as ox) it was 297.2 nm. Also, the “Number-Avg Diameter” value with pEGFP-N1 ([BFDMA] 2 μM, 600 ng DNA, listed as Ox. BFDMA) was 89 (±40) nm; with pEGFP-N1 (setting [9]) it was 64 (±25) nm; in the series on pEGFP-N1 (setting [10]), 86 (±37) nm; in the series with pEGFP-N1 (setting [11]) it was 110 (±55) nm; in the series on pEGFP-N1 ([BFDMA] 20 μM), “ca. 610 nm”; in the series with pEGFP-N1 (setting [12]), 611 (±183) nm. Moreover, in the series with pEGFP-N1 (setting [13]), the “Number-Avg Diameter” value is 1254 (±512) nm. Also, the “Intensity-Avg Diameter” value in the series on pEGFP-N1 ([BFDMA] 2 μM, listed as Ox. BFDMA) is reported as 196 (±86) nm; with pEGFP-N1 (setting [9]) it was 217 (±58) nm; in the series on pEGFP-N1 (setting [10]) it was 228 (±100) nm; in the series with pEGFP-N1 (setting [11]), 266 (±212) nm; in the series on pEGFP-N1 (setting [12]), 1163 (±150) nm; in the series with pEGFP-N1 (setting [13]), 1497 (±340) nm. For the same compound, the “levels of gene expression versus reduced BFDMA” value with COS-7 cells [5] (2 hours exposure, serum-free) is given as “dramatically lower”. Further, the luciferase expression entry in the series with COS-7 cells [5] (12 hour exposure, serum-free, 20 μM) is listed as “in excess of expression mediated by reduced BFDMA”. The “concentrations at which maximum gene expression is observed” value with COS-7 cells [5] is 40 µM and 60 µM. Also, the “EGFP expression (cell transfection)” value with COS-7 cells [6] (20 μM lipid, 4 h exposure in serum-free medium, 48 h) is given as “relatively high levels”. In the series with COS-7 cells [6] (2-40 μM lipid, 4 h exposure in serum-free medium, 48 h), the “EGFP gene expression, generally” value is recorded as “very low levels”. In addition, the “cytotoxicity relative to DNA alone or commercial controls” value in the series on COS-7 cells [7] (2 hours exposure, any concentration evaluated (2 μM to 60 μM), OptiMEM) is on record as “not cytotoxic”. The toxicity entry in the series on COS-7 cells [7] (4 hours exposure, e.g. 40 μM and 60 μM) is given as “increases at higher concentrations”. Also, the “hydrodynamic size of aggregates w/o DNA” value in series [8] (time 0 min, listed as ox) was 363.4 nm; in series [8] (time 120 min, listed as ox) it was 496 nm; in series [8] (time 240 min, listed as ox) it was 511 nm.
For the compound `C[N+](C)(CCCCCCCCCCC[c-]1cccc1)CCCCCCCCCCC[c-]1cccc1.[Br-].[Fe+2].[Fe+2].c1cc[cH-]c1.c1cc[cH-]c1` [reduced BFDMA, bis(11-ferrocenylundecyl)dimethylammonium bromide], the “hydrodynamic size of aggregates w/ DNA” value in the series on pGFP (time 0 min, listed as red) is recorded as 689.7 nm; with pGFP (time 120 min, listed as red), 2613.9 nm; with pGFP (time 240 min, listed as red), 2995.5 nm. Further, the “Number-Avg Diameter” value in the series on pEGFP-N1 ([BFDMA] 2 μM, 600 ng DNA, listed as Red. BFDMA) is given as 158 (±64) nm; with pEGFP-N1 (setting [14]), 231 (±88) nm; with pEGFP-N1 (setting [15]) it was 297 (±126) nm; in the series with pEGFP-N1 (setting [16]), 219 (±126) nm; in the series on pEGFP-N1 (setting [17]) it was 1490 (±750) nm; in the series on pEGFP-N1 (setting [18]), 1921 (±1220) nm. Besides, the “Intensity-Avg Diameter” value is 369 (±74) nm in the series with pEGFP-N1 ([BFDMA] 2 μM, listed as Red. BFDMA); 603 (±262) nm in the series on pEGFP-N1 (setting [14]); 951 (±504) nm in the series on pEGFP-N1 (setting [15]); 1118 (±426) nm in the series with pEGFP-N1 (setting [16]); 2766 (±725) nm with pEGFP-N1 (setting [17]); 4777 (±1350) nm with pEGFP-N1 (setting [18]). For the same compound, the “luciferase expression (normalized to total cell protein)” value is reported as “low” in the series with COS-7 cells [5] (2 hours exposure, serum-free, 2 μM and 40 μM and 60 μM); “significantly higher” in the series with COS-7 cells [5] (2 hours exposure, serum-free, 4 μM to 20 μM). The “luciferase expression versus Lipofectamine 2000 and TransIT-LT1” value in the series on COS-7 cells [5] (four and twelve hours exposure, serum-free, 6 μM to 20 μM) is recorded as “comparable to or measured to be in excess of”. In the series on COS-7 cells [5], the “concentrations at which maximum gene expression is observed” value was 20 µM and 40 µM. Further, the EGFP expression result in the series with COS-7 cells [6] (2 μM lipid, 4 h exposure in serum-free medium, 48 h) is given as “relatively low levels”. Further, the “EGFP expression (transfection)” value in the series on COS-7 cells [6] (10 μM and 20 μM lipid, 4 h exposure in serum-free medium, 48 h) is “increased significantly”; in the series with COS-7 cells [6] (40 μM lipid, 4 h exposure in serum-free medium, 48 h), “significantly reduced”. Further, the “cell death by phase contrast microscopy” value in the series on COS-7 cells [6] (concentrations above 40 μM) is recorded as “Significant cell death”. Moreover, the cytotoxicity result in the series on COS-7 cells [7] (2 hours exposure, 2 μM to 10 μM) is recorded as “not cytotoxic”; in the series on COS-7 cells [7] (2 hours exposure, 20 μM), “increases slightly”; with COS-7 cells [7] (2 hours exposure, 40 μM and 60 μM) it was “substantially cytotoxic”; with COS-7 cells [7] (12 hours exposure, 6 μM to 10 μM, versus two or four hours) it was “more cytotoxic”; in the series on COS-7 cells [7] (12 hours exposure, 20 μM) it was “cytotoxic”; with COS-7 cells [7] (two or four hours exposure, 20 μM) it was “not substantially cytotoxic”. The “hydrodynamic size of aggregates w/o DNA” value in series [8] (time 0 min, listed as red) stood at 472.8 nm; in series [8] (time 120 min, listed as red), 1214 nm; in series [8] (time 240 min, listed as red) it was 1090.3 nm.
In the case of “11-ferrocenylundecylsulfonate [oxidized FS]”, the liquid-liquid phase separation entry in series [4] is on record as “did not form two coexisting liquid phases”.
With `O=S(=O)([O-])[O-].[Li+].[Li+]` [Li2SO4], the clouding temperature entry in series [1] (0.1% (w/w) EHEC, 1M Li2SO4, pH 2.5) is “less than 6 °C”.
